Experimental data: patent publication US9932339B2, “Helquats with heteroaromatic substituents, preparation thereof, and use thereof as G-quadruplex stabilizers” (USTAV ORGANICKE CHEMIE A BIOCHEMIE AV CR, V.V.I., priority 2014, dated 2018)
Where two headings read alike, the source gives them in different places.

Legend:
[1] = tested on: G-quadruplex oligonucleotide Fmyc27T (NHE III1 promoter region of c-myc oncogene); assay: FRET melting of G-quadruplex oligonucleotide Fmyc27T with ligands; type: binding
Excerpt: (§1) To determine the degree of in vitro interactions of helquats with G-quadruplex(es), the oligonucleotides containing the guanine-rich sequences of human telomere (F21T) and NHE III1 promoter region of c-myc oncogene (Fmyc27T) were used. Both oligonucleotides capable of forming an intramolecular G-quadruplex were end-labeled with suitable fluorophores so as to form donor-acceptor FRET pair (5′-FAM and 3′-TAMRA). If the oligonucleotide is folded into the structure of the G-quadruplex, donor is in close proximity of acceptor and radiationless energy transfer to the acceptor occurs. With increasing temperature of the reaction mixture G-quadruplex structure gradually denatures and thus the donor and acceptor (FAM-TAMRA) drift apart. This leads to an increase in fluorescence of donor (FAM) and a decrease in fluorescence of acceptor (TAMRA).
(§2) The result of measurement is the curve of dependence of the intensity of fluorescence of the donor on the temperature. If the G-quadruplex is stabilized by ligand, melting temperature will increase. Melting temperature of G-quadruplex corresponds to the temperature when 50% of the original amount of the folded G-quadruplex is denatured. The measurement outcome is the difference in the melting temperatures (ΔTm) of the G-quadruplex alone and the G-quadruplex stabilized by ligand. In case of Fmyc27T experiments were performed in cacodylate buffer (10 mmol·l^−1, pH=7.2) with KCl (5 mmol·l^−1) and LiCl (95 mmol·l^−1) oligonucleotide and in case of F21T oligonucleotide in cacodylate buffer (10 mmol·l^−1, pH=7.2) with KCl (25 mmol·l^−1) and LiCl (75 mmol·l^−1).
(§3) Both oligonucleotides were denatured for 5 minutes at 95° C. and subsequently allowed to cool to room temperature (3 hours) in the switched-off thermoblock. The final oligonucleotide concentration in the reaction mixture was 0.2 μmol·l^−1. Test helquats were present at concentrations of 1 μmol·l^−1. The total reaction volume was 30 μl. The melting temperature of the oligonucleotides alone (without the presence of helquats) under these conditions was 58.1±0.2° C. for F21T and 64.7±0.4° C. for Fmyc27T. For determining the selectivity of binding of helquats to G-quadruplex in comparison with the double-stranded DNA, 50-fold excess of double-stranded DNA ([…] unlabeled competitor ds26 forming a hairpin) is added to the reaction mixture. After the addition to the reaction mixture ds26 competes with labeled oligonucleotide (Fmyc27T or F21T) for ligand binding. […] Melting temperature of oligonucleotides alone in the presence of the competitor is 59.4±0.5° C. for F21T and 66.3° C.±0.6° C. for Fmyc27T.
(§4) Fluorescence of FAM donor was measured using real-time PCR apparatus Opticon 2 (excitation 470-505 nm and emission 523-543 nm) in temperature increments of 0.5° C. in the range 25 to 95° C. Evaluation of the sigmoid curves of fluorescence intensity dependent on the temperature were performed in GraphPad Prism 5 (GraphPad Software, Inc., USA). Using nonlinear five parametric regression the inflection point on the curve was calculated that corresponds to the melting temperature (Tm) of the G-quadruplex under the given conditions. The values were obtained from at least three independent measurements.

[2] = tested on: G-quadruplex oligonucleotide F21T (human telomere); assay: FRET melting of G-quadruplex oligonucleotide F21T with ligands; type: binding
Excerpt: as §1, §2, §3, §4

CCRF-CEM = assay: XTT cytotoxicity/proliferation assay, CCRF-CEM; type: cell-based
Protocol: To assess the antiproliferative effects of the tested substances in vitro, tumor cell line CCRF-CEM derived from acute lymphoblastic leukemia and normal (healthy) HUVEC endothelial cells from umbilical vein were used. Both of these cell lines were cultured under optimal conditions for their growth in the appropriate medium in plastic bottles or plastic Petri dishes of various sizes (TPP, BD Biosciences) at 37° C., 5% CO2 and 95% humidity. HUVEC cells were purchased from BD Biosciences. CCRF-CEM cell line was obtained from ATCC/LGC Standards (American Type Cell Collection).
Suspension cell line CCRF-CEM is a continuous in vitro culture of acute lymphoblastic leukemia. Cell line CCRF-CEM was grown in RPMI 1640 medium (Sigma-Aldrich, cat. No. R8758) supplemented with 2 mmol·l^−1 glutamine (Invitrogen, cat. No. 35050-038), 10% fetal bovine serum (FBS; Sigma-Aldrich, cat. No. F9665), 100 IU/ml penicillin, 100 μg/ml streptomycin (Sigma-Aldrich, cat. No. P0781). Passaging was carried out 2-3 times a week. Population doubling time of CCRF-CEM cells under the used culture conditions is 20 hours.
For testing of the sensitivity of cell lines to studied helquats XTT cytotoxicity/proliferation assay for determination of cell viability was used. This method is based on the ability of metabolically active cells to reduce the yellow tetrazolium salt XTT to orange formazan. The rate of conversion is measured as the increase in absorbance at 492 nm and is proportional to the enzymatic activity of mitochondrial dehydrogenases and thus the number of metabolically active (viable) cells. The output is the IC50 value corresponding to the concentration of the test substance that causes a decrease in the number of viable cells by half (i.e. 50% slowdown of cell division) relative to the control, untreated population. Thus it reflects the effectiveness of the test substance towards the tested cell line.
Cells in exponential growth phase were plated into 96-well microtiter plate at a concentration of 3000 cells per well. Each well contained 90 μl of cell suspension. The following day, 10 μl of 10× concentrated test substances was added. Effect of helquats has been studied in the concentration range 1-100 μmol·l^−1 (or 1, 2.5, 5, 7.5, 10; 15; 25; 50 and 100 μmol·l^−1). In addition to the part of the plate containing the mentioned dilutions of test compounds there were always two control columns present, first column with medium alone (i.e. blank) and the second column with the cells in medium without test compounds (control). Into the blank and control wells the same volume of solvent (water) as the volume of the substances was added. After 72 hours of treatment with substances the measurement of viability was performed according to the manufacturer instructions. Briefly, into each well of a 96-well microtiter plate 50 μl of the prepared working solution of XTT (detection reagent) was added and then the microtiter plate was returned to the CO2 incubator. After 2 hours, the absorbance of each well at 492 nm (reference wavelength 690 nm) was measured using a multifunctional microplate reader (Tecan Genios, Austria).
The results of determination of the viability of cancer and normal cells after treatment with different concentrations of test substances are summarized in Table 9. […] Each concentration of a helquat was tested in triplicates within one IC50 value determination. Each of these IC50 value determinations was repeated in at least three independent experiments. Values above 100 μmol·l^−1 were obtained by extrapolation of data measured in the concentration range 0-100 μmol·l^−1 of helquats.

HUVEC = assay: XTT cytotoxicity/proliferation assay, HUVEC; type: cell-based, human
Protocol: To assess the antiproliferative effects of the tested substances in vitro, tumor cell line CCRF-CEM derived from acute lymphoblastic leukemia and normal (healthy) HUVEC endothelial cells from umbilical vein were used. Both of these cell lines were cultured under optimal conditions for their growth in the appropriate medium in plastic bottles or plastic Petri dishes of various sizes (TPP, BD Biosciences) at 37° C., 5% CO2 and 95% humidity. HUVEC cells were purchased from BD Biosciences. CCRF-CEM cell line was obtained from ATCC/LGC Standards (American Type Cell Collection). Normal human endothelial cells from the umbilical vein are adherent cells, which were grown in plastic Petri dishes coated with collagen I. The culture medium (E-STIMTM; BD Biosciences, cat. […] Then, 5 ml of complete culture media E-STIM™ was added and the cells were centrifuged (180×g, 7 minutes), resuspended and transferred in a desired amount in a new Petri dish with fresh medium. In the experiments cells between passages 3 and 8 (after thawing) were used. Population doubling time of HUVEC cells under the used culture conditions is 38 hours. For testing of the sensitivity of cell lines to studied helquats XTT cytotoxicity/proliferation assay for determination of cell viability was used. This method is based on the ability of metabolically active cells to reduce the yellow tetrazolium salt XTT to orange formazan. The rate of conversion is measured as the increase in absorbance at 492 nm and is proportional to the enzymatic activity of mitochondrial dehydrogenases and thus the number of metabolically active (viable) cells. […] Thus it reflects the effectiveness of the test substance towards the tested cell line. Cells in exponential growth phase were plated into 96-well microtiter plate at a concentration of 3000 cells per well. Each well contained 90 μl of cell suspension. The following day, 10 μl of 10× concentrated test substances was added. […] In addition to the part of the plate containing the mentioned dilutions of test compounds there were always two control columns present, first column with medium alone (i.e. blank) and the second column with the cells in medium without test compounds (control). Into the blank and control wells the same volume of solvent (water) as the volume of the substances was added. After 72 hours of treatment with substances the measurement of viability was performed according to the manufacturer instructions. Briefly, into each well of a 96-well microtiter plate 50 μl of the prepared working solution of XTT (detection reagent) was added and then the microtiter plate was returned to the CO2 incubator. After 2 hours, the absorbance of each well at 492 nm (reference wavelength 690 nm) was measured using a multifunctional microplate reader (Tecan Genios, Austria).

[3] = tested on: G-quadruplex in promoter region of the c-myc gene (NHE III1 segment); assay: Dual luciferase analysis with plasmid pGL4.10-myc (luc2) in HGC-27 cells; type: cell-based, human
Excerpt: A dual luciferase analysis was used to determine the degree of stabilization of G-quadruplex in a promoter region of the c-myc gene on cellular level. Stabilization of G-quadruplex is expressed as the ratio of expression of two luciferases (firefly and Renilla) from the co-transfected vectors pGL4.10-myc (luc2) and pRL-TK (Renilla) into a cell line HGC-27 expressing c-myc protein. Expression of the reporter gene (firefly luciferase) from pGL4.10-myc vector is controlled by the c-myc regulatory region of a length of 860 by (in the range from −306 to +554). The inserted sequence contains NHE III1 segment which forms G-quadruplex [Yang, D. et al. (2010) Future Med Chem., 2, 619], and is responsible for as much as 90% of the transcriptional activity of the c-myc gene.
Level of expression of firefly luciferase reporter gene corresponds to promoter activity of c-myc and thus to the degree of stabilization of the G-quadruplex. The signal is normalized to Renilla luciferase expression from pRL-TK vector under the control of a constitutive viral thymidine kinase (HSV-TK) promoter. The amount of Renilla luciferase expression serves as an internal control for normalization of firefly signal on transfection efficiency in the sample. Plasmids pGL4.10-myc (luc2) and pRL-TK were propagated in Escherichia coli (DH5α strain) and purified using the Qiagen Plasmid Mini and Midi kits. Cells were cultured under standard conditions and in exponential growth phase were seeded into a white 96-well microtiter plates. Transfection was carried out using a transfection reagent X-tremeGENE HP DNA in OptiMEM media for two hours. The ratio of reporter and control vector was 1:1 and the ratio of transfection reagent to the total amount of DNA was 1:1. Two hours after transfection helquats were added in a concentration of 50 μmol·l^−1. Quantity of firefly and Renilla luciferases in the samples was determined 24 hours after transfection. Dual luciferase analysis was performed using a commercially available kit (Promega, cat. No. E1960) according to manufacturer's instructions. Luminescence was measured using a luminometer EnSpire Alpha Plate Reader. The data obtained were normalized to the Renilla luciferase signal and then the values were related to control.

[4] = helquat 1 μmol·l^−1, oligonucleotide 0.2 μmol·l^−1, 50-fold excess of double-stranded competitor ds26
[5] = helquat 1 μmol·l^−1, oligonucleotide 0.2 μmol·l^−1, without competitor

With `Cc1c(C)c2c(c3c1CC[n+]1ccc(/C=C/c4c(-c5ccccc5)[nH]c5ccccc45)cc1-3)-c1cc(/C=C/c3c(-c4ccccc4)[nH]c4ccccc34)cc[n+]1CC2` [PDB-C15-8, 8,9-dimethyl-2,15-bis((E)-2-(2-phenyl-1H-indol-3-yl)vinyl)-6,7,10,11-tetrahydrodipyrido[2,1-a:1′,2′-k][2,9]phenanthroline-5,12-diium trifluoromethanesulfonate] the “ΔTm (° C.) Fmyc27T/ds26 (° C.)” value [1, 4] was 14.5 °C, the “ΔTm (° C.) Fmyc27T” value [1, 5] was 15.7 °C and the “ΔTm (° C.) F21T/ds26” value [2, 4] was 11.1 °C. For the same compound, the “ΔTm (° C.) F21T” value [2, 5] was 11.3 °C.
`C(=C\c1cc2ccccc2[n+]2c1-c1c(ccc3c1-c1cccc[n+]1CCC3)CCC2)/c1ccc2[nH]ccc2c1` [MSC-C9-10, 19-((E)-2-(1H-indol-5-yl)vinyl)-6,7,8,11,12,13-hexahydropyrido[1′″,2′″:1″,2″]azepino[4″,3″:5′,6′]benzo[1′,2′:3,4]azepino[1,2-a]quinoline-5,14-diium trifluoromethanesulfonate] was tested, and the IC50 (CCRF-CEM; Homo sapiens, CCRF-CEM, 72 hours of treatment, read-out: IC50 CCRF CEM) was no more than 10 µM, the IC50 (CCRF-CEM; Homo sapiens, CCRF-CEM, 72 hours, summary of table 9, read-out: concentrations toxic towards CCRF-CEM cells) was less than 25 µM and the IC50 (HUVEC; Homo sapiens, HUVEC, 72 hours of treatment, values above 100 μmol·l^−1 obtained by extrapolation, read-out: IC50 HUVEC) was no less than 100 µM. The IC50 (HUVEC; Homo sapiens, HUVEC, 72 hours, summary of table 9, read-out: concentrations non-toxic towards HUVEC cells) was greater than 100 µM, the inhibition at 50 µM ([3]; Homo sapiens, HGC-27, text summary of tab. 5 (50 μmol·l^−1), read-out: inhibition of expression of firefly luciferase as compared to control) was greater than 40% and the activity at 50 µM ([3]; Homo sapiens, helquat 50 μmol · l^−1, HGC-27, firefly normalized to Renilla, 24 hours after transfection, read-out: luciferase expression relative to control (control = 100%)) was 56%.
For `Cc1[nH]c2ccccc2c1/C=C/c1cc2ccccc2[n+]2c1-c1c(ccc3c1-c1cccc[n+]1CCC3)CCC2.O=S(=O)([O-])C(F)(F)F.O=S(=O)([O-])C(F)(F)F` [MSC-C10-11, 19-((E)-2-(2-methyl-1H-indol-3-yl)vinyl)-6,7,8,11,12,13-hexahydropyrido[1′″,2″:1″,2″]azepino[4″,3″:5′,6′]benzo[1′,2′:3,4]azepino[1,2-a]quinoline-5,14-diium trifluoromethanesulfonate], the IC50 (CCRF-CEM; 72 hours of treatment, read-out: IC50 CCRF CEM) was 11 to 25 µM, the IC50 (HUVEC; 72 hours of treatment, values above 100 μmol·l^−1 obtained by extrapolation, read-out: IC50 HUVEC) was no less than 100 µM and the “luciferase expression relative to control (control = 100%)” value ([3]; helquat 50 μmol · l^−1, HGC-27, firefly normalized to Renilla, 24 hours after transfection) was 74%.
